From US20240082238A1, “COMPOSITIONS AND METHODS FOR TREATING CANCER” (UNIVERSITY OF IOWA RESEARCH FOUNDATION, priority 2021, published 2024) come the findings set out here.

The test system of assay [1] is Hec50co cells. The experiment in a line: Cytotoxicity assay (MTS), Hec50co cells. The class given is cell-based, human. The settings on record: 72 h; for IC50: Homo sapiens. The protocol: Cytotoxicity assay. Hec50co cells were seeded at 1500 cells per well in 96-well plates for 24 h in a complete medium. Later, the medium was removed and PTX, CIP2b, or CIP (all dissolved in DMSO and diluted in complete medium) were added to cells as either monotherapies or in combinations, and the plates were incubated for 72 hours. Then, the complete medium was removed and MTS reagent in the complete medium was added to wells, and the plates were incubated for 1-4 hours according to the manufacturer's protocol. Finally, the absorbance was recorded at 490 nm using a Spectra Max plus 384 Microplate Spectrophotometer (Molecular Devices, Sunnyvale, CA). Percentage cell viability was expressed as the average absorbance of the test group relative to that of the control group (untreated cells). The concentration that inhibits proliferation of 50% of cells compared to control (IC50) was calculated using GraphPad Prism (La Jolla, CA). Synergism was detected following the Chou-Talalay method (CI<1 indicates synergism) (Chou T C. Cancer research. 2010; 70(2):440-6, doi: 10.1158/0008-5472.CAN-09-1947) using CompuSyn software (Ver. 1.0). […]

The test system of assay [2] is Hec50co cells. The experiment in a line: Intracellular accumulation of PTX-OG (flow cytometry, confocal microscopy). The settings on record: 400 nM PTX-OG alone, 2 h. The class given is cell-based, human. As to the method:
Intracellular accumulation of PTX using flow cytometer. To evaluate PTX cellular accumulation in the presence or absence of CIP2b, Hec50co cells were seeded at a density of 200,000 cells per well in 6-well plates in complete medium and incubated for 24 h. Afterward, the medium was removed, and a DMSO-based solution (0.1 mg/mL) of fluorescently labeled PTX (PTX-OG) was added at 400 nM per well, and the volume was completed to 2 mL with the medium. Also, CIP2b (in DMSO) was added at 4 or 40 μM, either alone or in combination with PTX-OG. After 2 h, the medium was removed, the cells were washed thoroughly with DPBS, trypsinized, and collected by centrifugation (230 xg, 5 min). Finally, cells were analyzed by flow cytometry (FACScan).
Intracellular accumulation of PTX using confocal microscopy. Intracellular accumulation of PTX co-delivered with CIP2b was also studied qualitatively in Hec50co cells using confocal microscopy. […]
In vitro activity of CIP2b NPs. […] An equivalent quantity of blank NPs was also tested to account for the effect of the PLGA NPs alone without CIP2b. […] An equivalent quantity of blank NPs was also added, either alone or with PTX-OG. Samples were then analyzed using a flow cytometer, as described above.
(Flow cytometry measures light scatter and fluorescence of single cells or particles in a stream.)

In another assay the target is T1, human Topo IIα (Homo sapiens, UniProt P11388).
T1 construct: purchased TopoGEN Inc. TG1001-1A
T1 sequence (P11388 whole entry): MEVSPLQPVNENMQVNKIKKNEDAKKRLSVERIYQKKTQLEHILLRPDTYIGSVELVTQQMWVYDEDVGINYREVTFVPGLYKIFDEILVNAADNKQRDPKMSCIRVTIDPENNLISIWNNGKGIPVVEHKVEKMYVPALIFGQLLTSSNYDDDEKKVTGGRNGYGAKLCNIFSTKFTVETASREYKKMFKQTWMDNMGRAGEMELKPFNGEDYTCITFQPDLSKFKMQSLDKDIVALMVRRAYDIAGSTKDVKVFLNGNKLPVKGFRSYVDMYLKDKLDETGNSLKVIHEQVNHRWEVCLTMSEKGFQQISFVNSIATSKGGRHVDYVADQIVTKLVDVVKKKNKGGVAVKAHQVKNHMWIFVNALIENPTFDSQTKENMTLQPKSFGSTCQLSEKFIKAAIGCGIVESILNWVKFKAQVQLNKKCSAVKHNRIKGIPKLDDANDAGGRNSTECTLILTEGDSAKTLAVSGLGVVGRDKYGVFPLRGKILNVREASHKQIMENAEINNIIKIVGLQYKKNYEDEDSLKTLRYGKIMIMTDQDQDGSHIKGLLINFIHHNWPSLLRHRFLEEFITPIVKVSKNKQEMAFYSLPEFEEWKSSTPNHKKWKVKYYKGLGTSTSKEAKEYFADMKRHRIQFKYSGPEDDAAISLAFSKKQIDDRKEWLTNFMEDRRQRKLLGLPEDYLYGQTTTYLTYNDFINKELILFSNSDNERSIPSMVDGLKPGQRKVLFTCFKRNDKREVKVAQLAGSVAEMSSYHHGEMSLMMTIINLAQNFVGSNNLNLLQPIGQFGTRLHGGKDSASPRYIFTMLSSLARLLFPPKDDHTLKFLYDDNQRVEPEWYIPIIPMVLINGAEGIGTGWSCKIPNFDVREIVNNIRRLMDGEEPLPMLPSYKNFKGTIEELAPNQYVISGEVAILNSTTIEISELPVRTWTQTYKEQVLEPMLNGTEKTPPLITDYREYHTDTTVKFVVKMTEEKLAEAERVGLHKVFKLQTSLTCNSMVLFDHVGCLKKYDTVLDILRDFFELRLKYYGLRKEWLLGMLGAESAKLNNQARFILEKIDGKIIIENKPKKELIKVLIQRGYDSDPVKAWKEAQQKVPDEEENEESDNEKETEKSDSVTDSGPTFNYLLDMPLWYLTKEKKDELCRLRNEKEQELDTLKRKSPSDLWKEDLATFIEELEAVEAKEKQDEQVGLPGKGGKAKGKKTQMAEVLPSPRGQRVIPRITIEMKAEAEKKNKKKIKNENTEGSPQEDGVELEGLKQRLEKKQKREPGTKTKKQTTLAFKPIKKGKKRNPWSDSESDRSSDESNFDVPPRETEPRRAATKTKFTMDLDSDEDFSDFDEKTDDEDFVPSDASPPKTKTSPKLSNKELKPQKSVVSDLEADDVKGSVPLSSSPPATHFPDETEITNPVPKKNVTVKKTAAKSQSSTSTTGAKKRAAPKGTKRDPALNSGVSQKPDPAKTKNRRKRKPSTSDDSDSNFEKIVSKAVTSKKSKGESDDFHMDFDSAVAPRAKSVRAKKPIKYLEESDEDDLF
Description: Topoisomerase II inhibition assay (plasmid-based). The assay is classed as biochemical. The conditions noted are these: drug final concentration 100 μM; read-out: percentage of Topo II inhibition. The protocol: Topoisomerase II inhibition assay. A plasmid-based Topo II assay (Cat. No. TG1001-1A, TopoGEN Inc., Buena Vista, CO) was performed according to the manufacturer's instructions. In this experiment, 1 μL of tested compounds (PTX, CIP, CIP2b, ETO) at a concentration of 2 mM was mixed with 4 μL of the reaction buffer (mixture of buffer A (0.5 M Tris-HCl (pH 8), 1.50 M NaCl, 100 mM MgCl2, 5 mM Dithiothreitol, 300 μg BSA/mL) and buffer B (10× ATP Buffer), and deionized water was added to make 18 μL solution. This was followed by adding 1 μL of catenated DNA and 1 μL of human Topo IIα (8 U/μL) (drug final concentration was 100 μM). Additionally, decatenated DNA (De-CT DNA) and catenated DNA (CT DNA)±Topo II were used as a control (i.e., not containing drugs). Moreover, relaxed DNA was added as another control in this assay. Similar to Topo I assay, samples were then incubated on a heating block set at 37° C. for 30 minutes. Then, the reaction was stopped by the addition of a 5× stop buffer. Samples were then loaded directly into the wells of a 1% agarose gel containing 1 μg/mL ethidium bromide. The gel was run at 150 V until the dye front had traveled approximately 5 cm (run time was approximately 2 h). The gel was then washed with deionized water for 30 minutes before imaging. The image was taken using an Invitrogen iBright CL1500 Imaging System. The intensity of the final bands in the gel was quantified using ImageJ, and the results are expressed as the percentage of Topo II inhibition.

A further assay concerns caspase 3. Description: Caspase multiplex activity assay, caspase 3. The assay is classed as cell-based, human. The settings on record: 72 h; PTX 5, 10 nM; CIP2b 10, 25, 50 μM. The protocol: Apoptosis and caspase activity. The expression of caspase 3, 8, and 9 was measured using Multiplex Activity Assay Fluorometric Kit (Cat. No. ab219915, Abcam). Briefly, Hec50co cells were plated in 96-well plates at a density of 3000 per well in 100 μL of the complete medium and incubated for 24 hours. After incubation, the medium was removed, and different concentrations either in single or combination of treatments were added (PTX 5 and 10 nM; CIP2b 10, 25, and 50 μM). Cells with treatments were incubated for 24 or 72 hours. Then, the caspase kit reagents were added to the cells and incubated at room temperature for 60 minutes. Fluorescence intensity (at excitation/emission values of 535/620 nm, 490/525 nm, and 370/450 nm for caspase 3, 8, and 9, respectively) was then measured using a SpectraMax M5 microplate reader (Molecular Devices).

Like-named read-outs stand apart in the source and are kept apart here.

For `CC(=O)O[C@H]1C(=O)[C@@]2(C)[C@H]([C@H](OC(=O)c3ccccc3)[C@]3(O)C[C@H](OC(=O)[C@H](O)[C@@H](NC(=O)c4ccccc4)c4ccccc4)C(C)=C1C3(C)C)[C@]1(OC(C)=O)CO[C@@H]1C[C@@H]2O` [PTX, paclitaxel], the survival in the assay with Hec50co cells [1] (0.1 nM PTX alone) stood at 100%. Further, in the assay on Hec50co cells [1] (5 nM PTX as single compound), the cell survival result is reported as “about 80%”. Further, the 50% inhibitory concentration (IC50) – broadly, the concentration that inhibits the measured activity by half – with Hec50co cells [1] (10 μM CIP2b added, read-out: IC50 value of PTX) is 3.1 nM; in the assay with Hec50co cells [1] (25 μM CIP2b added, read-out: IC50 value of PTX), 2.15 nM; with Hec50co cells [1] (PTX alone), 8.77 nM. In the assay on Hec50co cells [2], the “cellular uptake of PTX-OG” value is “readily taken up”. Further, the inhibition (in general, the share of the control response that was lost under treatment) at 100 µM on human Topo IIα worked out at 8%. Besides, the “levels of caspase 3” value with caspase 3 is recorded as “high levels of caspase 3”.
